# Data from patent publication US8394828B2 (Janssen Pharmaceutica, NV, priority 2003, dated 2013).
# Read-outs that look alike come from different tables or passages of the source.
# Assays:
# [1] = target: T1, human VR1 (Homo sapiens, UniProt Q8NER1); experiment: Human VR1 functional assay (intracellular Ca++, FLIPR, capsaicin challenge); assay type: cell-based
# T1 construct: expressed in transfected cells; host or cells: HEK293
# Procedure: The functional activity of the test compounds was determined by measuring changes in intracellular calcium concentration using a Ca^++-sensitive fluorescent dye and FLIPR™ technology.
# EC50 or IC50 values were determined from dose-response studies.
# [2] = target: T1, human VR1; experiment: Human VR1 [3H] RTX binding assay; conditions: for Ki: hVR1; for inhibition at 1 µM: compound at 1 μM
# In short: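 Membranes from HEK293 cells transfected with human VR1, about 120 μg protein/ml, incubated with [3H] RTX in HEPES buffer pH 7.4 with 0.25 mg/mL fatty acid-free BSA for 60 min at 37° C. Bound radioactivity measured by scintillation counting. Non-specific binding defined with 200 nM unlabeled RTX.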
# [3] = hVR1, capsaicin challenge, read-out: FLIPR functional assay IC50 hVR1
# [4] = 3H-RTX binding, read-out: 3H-RTX binding assay Ki hVR1
# [5] = FLIPR functional assay IC50 hVR1 60 min, 60 min
# T1 sequence (Q8NER1 whole entry): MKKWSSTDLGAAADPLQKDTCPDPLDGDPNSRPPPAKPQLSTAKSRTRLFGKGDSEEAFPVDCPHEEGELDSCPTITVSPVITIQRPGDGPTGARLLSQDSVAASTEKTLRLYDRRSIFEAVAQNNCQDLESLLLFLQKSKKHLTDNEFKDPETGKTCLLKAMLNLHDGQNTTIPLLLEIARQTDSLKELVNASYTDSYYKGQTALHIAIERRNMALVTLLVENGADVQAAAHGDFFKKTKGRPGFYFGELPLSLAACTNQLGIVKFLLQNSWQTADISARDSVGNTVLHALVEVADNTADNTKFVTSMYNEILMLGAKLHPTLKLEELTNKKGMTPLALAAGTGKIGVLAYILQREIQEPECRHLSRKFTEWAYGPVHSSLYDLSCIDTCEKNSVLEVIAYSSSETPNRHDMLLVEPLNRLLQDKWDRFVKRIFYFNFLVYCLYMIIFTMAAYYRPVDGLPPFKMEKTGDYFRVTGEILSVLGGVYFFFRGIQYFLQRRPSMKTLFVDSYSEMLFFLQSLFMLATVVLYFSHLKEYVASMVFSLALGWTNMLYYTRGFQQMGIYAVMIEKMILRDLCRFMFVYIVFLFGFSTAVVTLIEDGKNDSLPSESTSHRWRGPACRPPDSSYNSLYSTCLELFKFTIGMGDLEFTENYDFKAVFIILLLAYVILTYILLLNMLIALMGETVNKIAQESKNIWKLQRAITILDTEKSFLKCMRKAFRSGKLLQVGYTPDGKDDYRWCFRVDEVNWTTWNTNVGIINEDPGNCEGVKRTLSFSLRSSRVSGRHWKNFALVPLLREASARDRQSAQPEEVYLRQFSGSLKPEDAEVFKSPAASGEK
SMILES,"IC50 [1, 3] [nM]","Ki ([2]; 3H-RTX binding assay Ki hVR1, 3H-RTX binding) [nM]",inhibition at 1 µM ([2]; 3H-RTX binding) [%],"Ki [2, 4] [nM]","IC50 [1, 5] [nM]","IC50 ([1]; read-out: FLIPR functional assay IC50 hVR1 60 min, 60 min) [nM]"
"CCCCC(C)(C)c1cc(OC)c(CCC(=O)Nc2cnc3ccccc3c2)c(OC)c1 [3-{4-(1,1-Dimethyl-pentyl)-2,6-dimethoxy-phenyl}-N-quinolin-3-yl-propionamide]",1000,10.6,96,–,–,–
"CCC(C)(C)c1cc(OC)c(CCC(=O)Nc2cnc3ccccc3c2)c(OC)c1 [3-{4-(1,1-Dimethyl-propyl)-2,6-dimethoxy-phenyl}-N-quinolin-3-yl-propionamide]",320,–,93,52,–,–
CC(C)(c1ccc(CCC(=O)Nc2cnc3ccccc3c2)cc1)C1CCCCC1 [3-{4-(1-Cyclohexyl-1-methyl-ethyl)-phenyl}-N-quinolin-3-yl-propionamide],570,–,–,31.5,–,–
CN(Cc1ccccc1)c1ccc(CCC(=O)Nc2cnc3ccccc3c2)cc1 [3-{4-(Benzyl-methyl-amino)-phenyl}-N-quinolin-3-yl-propionamide],354,–,–,111,–,–
CN(c1ccc(C=CC(=O)Nc2cnc3ccccc3c2)cc1)C1CCCCC1 [3-{4-(Cyclohexyl-methyl-amino)-phenyl}-N-quinolin-3-yl-acrylamide],–,–,91,131,400,–
CN(c1ccc(CCC(=O)Nc2cnc3ccccc3c2)cc1)C1CCCCC1 [3-{4-(Cyclohexyl-methyl-amino)-phenyl}-N-quinolin-3-yl-propionamide],3900,–,51,1170,–,–
CCCN(C)c1ccc(CCC(=O)Nc2cnc3ccccc3c2)cc1 [3-{4-(Methyl-propyl-amino)-phenyl}-N-quinolin-3-yl-propionamide],500,–,–,196,–,–
"CC1CN(c2ccc(C(=O)Nc3cnc4ccccc4c3)cc2)CC(C)O1 (stereo not drawn) [4-(2,6-Dimethyl-morpholin-4-yl)-N-quinolin-3-yl-benzamide]",10000,–,18,–,–,–
"CC1CC(C)CN(c2ccc(C(=O)Nc3cnc4ccccc4c3)cc2)C1 (stereo not drawn) [4-(3,5-Dimethyl-piperidin-1-yl)-N-quinolin-3-yl-benzamide]",1800,–,91,86.1,–,–
O=C(Nc1cnc2ccccc2c1)c1ccc(N2CC3CCCC(C3)C2)cc1 [4-(3-Aza-bicyclo{3.3.1}non-3-yl)-N-quinolin-3-yl-benzamide],170,–,99,5.15,127,–
O=C(Nc1cnc2ccccc2c1)c1ccc(N2CCN(C(=O)Cc3ccccc3)CC2)cc1 [4-(4-Phenylacetyl-piperazin-1-yl)-N-quinolin-3-yl-benzamide],10000,–,–,100000,–,–
CCCC1CCN(c2ccc(C(=O)Nc3cnc4ccccc4c3)cc2)CC1 [4-(4-Propyl-piperidin-1-yl)-N-quinolin-3-yl-benzamide],16000,–,92,103,170,–
CC(=O)N(c1ccc(C(=O)Nc2cnc3ccccc3c2)cc1)C1CCCCC1 [4-(Acetyl-cyclohexyl-amino)-N-quinolin-3-yl-benzamide],10000,–,1,–,–,–
CN(Cc1ccccc1)c1ccc(C(=O)Nc2cnc3ccccc3c2)cc1 [4-(Benzyl-methyl-amino)-N-quinolin-3-yl-benzamide],2300,–,98,75.3,370,–
CN(c1ccc(C(=O)Nc2cnc3ccccc3c2)cc1)C1CCCCCC1 [4-(Cycloheptyl-methyl-amino)-N-quinolin-3-yl-benzamide],400,–,100,14,–,–
CCN(c1ccc(C(=O)Nc2cnc3ccccc3c2)cc1)C1CCCCC1 [4-(Cyclohexyl-ethyl-amino)-N-quinolin-3-yl-benzamide],300,–,–,12.6,–,–

SMILES,"IC50 [1, 3] [nM]","Ki ([2]; 3H-RTX binding assay Ki hVR1, 3H-RTX binding) [nM]",inhibition at 1 µM ([2]; 3H-RTX binding) [%],"Ki [2, 4] [nM]","IC50 [1, 5] [nM]","IC50 ([1]; read-out: FLIPR functional assay IC50 hVR1 60 min, 60 min) [nM]"
Cc1cc(C(=O)Nc2cnc3ccccc3c2)ccc1N(C)C1CCCCC1 [4-(Cyclohexyl-methyl-amino)-3-methyl-N-quinolin-3-yl-benzamide],560,–,–,22,23,–
CN(C(=O)c1ccc(N(C)C2CCCCC2)cc1)c1cnc2ccccc2c1 [4-(Cyclohexyl-methyl-amino)-N-methyl-N-quinolin-3-yl-benzamide],2000,–,12,–,–,–
CCCN(c1ccc(C(=O)Nc2cnc3ccccc3c2)cc1)C1CCCCC1 [4-(Cyclohexyl-propyl-amino)-N-quinolin-3-yl-benzamide],10000,–,–,84.6,–,–
Cc1cc(C(=O)Nc2cnc3ccccc3c2)ccc1N(C)CC1CCCCC1 [4-(Cyclohexylmethyl-methyl-amino)-3-methyl-N-quinolin-3-yl-benzamide],10000,–,–,68.3,–,–
CN(CC1CCCCC1)c1ccc(C(=O)Nc2cnc3ccccc3c2)cc1 [4-(Cyclohexylmethyl-methyl-amino)-N-quinolin-3-yl-benzamide],1700,–,104,15.7,–,–
CN(c1ccc(C(=O)Nc2cnc3ccccc3c2)cc1)C1CCCC1 [4-(Cyclopentyl-methyl-amino)-N-quinolin-3-yl-benzamide],185,–,–,27.9,–,–
CCCCCC=CCCCN(C)c1ccc(C(=O)Nc2cnc3ccccc3c2)cc1 [4-(Dec-4-enyl-methyl-amino)-N-quinolin-3-yl-benzamide],–,–,104,23.1,66,–
CCC=CCCCN(C)c1ccc(C(=O)Nc2cnc3ccccc3c2)cc1 [4-(Hept-4-enyl-methyl-amino)-N-quinolin-3-yl-benzamide],1900,–,104,29.8,46,–
CCCCN(C)c1ccc(C(=O)Nc2cnc3ccccc3c2)cc1 [4-(Methyl-butyl-amino)-N-quinolin-3-yl-benzamide],786,–,97,83.3,100,–
CCC=CCCCCCN(C)c1ccc(C(=O)Nc2cnc3ccccc3c2)cc1 [4-(Methyl-non-6-enyl-amino)-N-quinolin-3-yl-benzamide],–,–,101,36.5,48,–
CCCCCCCCN(C)c1ccc(C(=O)Nc2cnc3ccccc3c2)cc1 [4-(Octyl-methyl-amino)-N-quinolin-3-yl-benzamide],–,–,105,14.7,–,190
CCCN(CCc1ccccc1)c1ccc(C(=O)Nc2cnc3ccccc3c2)cc1 [4-(Phenethyl-propyl-amino)-N-quinolin-3-yl-benzamide],–,–,105,71.6,360,–
O=C(Nc1cnc2ccccc2c1)c1ccc(N2CCCCCCC2)cc1 [4-Azocan-1-yl-N-quinolin-3-yl-benzamide],290,–,–,18.5,–,–
O=C(Nc1cnc2ccccc2c1)c1ccc(N2CCCCCCCC2)cc1 [4-Azonan-1-yl-N-quinolin-3-yl-benzamide],92,–,–,11.8,–,–
"O=C(Nc1cnc2ccccc2c1)c1ccc(N2CCC(Cc3ccccc3)CC2)nc1 [4-Benzyl-3,4,5,6-tetrahydro-2H-{1,2′}bipyridinyl-5′-carboxylic acid quinolin-3-ylamide]",440,–,100,25.6,–,–
CCCCOc1ccc(C(=O)Nc2cnc3ccccc3c2)cc1 [4-Butoxy-N-quinolin-3-yl-benzamide],10000,–,–,155,–,–
